In patent publication US20250281479A1, “TREATMENT OF CAVERNOUS ANGIOMAS WITH A 4-SUBSTITUTED PIPERIDINE DERIVATIVE” (Neurelis, Inc., priority 2024, published 2025):
Where two headings read alike, the source gives them in different places.

How the values were obtained:
[1] = first-in-human single ascending dose and food-effect study, plasma pharmacokinetics; assay type: in vivo; details: for Vd/F: read-out: Vz/F
Description: This was a first-in-human, single center, randomized, double-blind, placebo-controlled, single ascending dose (SAD) study, including a food-effect assessment, in healthy male and female subjects. Up to 44 subjects were included in the study.
The study consisted of 4 sequential cohorts of 8 subjects each (6 active and 2 placebo), randomly assigned to receive a single oral dose of NRL-1049 or matching-placebo under fasting state on Day 1 (See Table 2). In each cohort, a sentinel group of 2 subjects (1 active and 1 placebo) were dosed at least 24 hours prior to enrolling the remaining subjects of the cohort, contingent on the safety profile observed during sentinel dosing, as defined by medical judgment.
Subjects were admitted to the clinical research unit (CRU) on Day −1. On Day 1, following an overnight fast, subjects received a single oral dose of their assigned study treatment. Safety, PK, and exploratory biomarker assessments were performed prior to dosing and at assigned time points during study confinement. Subjects were permitted to leave the CRU following the completion of the 48-hour PK postdose sampling and safety assessments. A safety follow-up phone call was performed on Day 8 (±1 day).
Furthermore, a food-effect assessment was integrated into Cohort 3, in which a single oral 150 mg dose of NRL-1049 or placebo was administered to 12 subjects (10 active and 2 placebo) under fed state in Period 2 (refer to schedule of food-effect Cohort 3 in Table 3). After completion of Period 1 and a washout period of at least 14 days, Cohort 3 subjects repeated the screening procedures to ensure they still met the inclusion and exclusion criteria prior to readmission to the CRU for Period 2. Subjects dosed in Period 1 and who returned for Period 2 (a maximum of 6 active and 2 placebo) were administered the same single oral dose in Period 2 under fed state. In addition, at least 4 new subjects were enrolled in Period 2 only, in order to dose a total of 12 subjects (10 active and 2 placebo), in a 1:1 ratio of male to female. If a subject dosed in Period 1 was unable to return for Period 2, a new subject was enrolled to ensure dosing a total of 12 subjects in Period 2. Newly enrolled subjects only received the study drug in the fed state, and as such were not required to undergo Period 1 activities. There was no sentinel approach in Period 2.
Study drugs (NRL-1049 or placebo) were administered in the morning. The date and time of each dose was recorded. For each subject, all scheduled postdose activities and assessments were performed relative to the time of study drug administration. An oral dose of the assigned formulation was administered to subjects with approximately 240 mL of water at ambient temperature. The capsule(s) were swallowed whole and not chewed or broken. Food and fluid intake other than water were controlled for each confinement period and all subjects. In Cohorts 1, 2, 3 (Period 1), and 4, water was permitted as needed except from 1 hour predose until 1 hour after dosing. In Period 2 of Cohort 3, water was permitted as needed throughout the confinement period. For cohorts under fasting state, subjects were required to fast (abstain from food) for at least 10 hours prior to dosing and for at least 4 hours following dosing. In Period 2 of the food-effect cohort only, following an overnight fast of at least 10 hours, subjects received a standardized high-fat, high-calorie meal 30 minutes prior to study drug administration. An example meal would consist of 2 eggs fried in butter, 2 strips of bacon, 2 slices of toast with butter, 4 ounces of hash brown potatoes, and 8 ounces of whole milk. […] Subjects had to eat the total content of this meal in 30 minutes or less. For all cohorts, a standardized lunch was served at least 4 hours after dosing. A supper, light snack, and other meals were served at appropriate times thereafter, but not until after 9 hours postdose. […]

[2] = target: CYP2D6 (Homo sapiens, UniProt P10635); test: CYP inhibition; assay type: in vitro ADME; details: read-out: half-maximal inhibitory concentration (IC50)
Description: (§1) Exposure to NRL-2017 was similar or greater (up to 5-fold) than that to NRL-1049 in rats when dosed once a day (QD). In monkeys, exposure to NRL-2017 was also greater (up to 33-fold) than that to NRL-1049. When rats were dosed twice a day (BID) for 14 days, there was a decrease in formation of NRL-2017 with exposure to NRL-2017 lower than that of NRL-1049 (ratio as low as 0.06). […] NRL-1049 bound to human serum albumin and human alpha1-acid glycoprotein. […] There was also inhibition of P-glycoprotein (P-gp) (only CACO-2 cells), organic anion transporting polypeptides (OATP) OATP1B1, OATP1B3 and OAT3 (IC50, >100 μM), but no effect on P-gp (MDCK2 cells), breast cancer resistance protein (BCRP), bile salt export pump (BSEP), or MATE2-K. NRL-1049 is a substrate for P-gp, not BCRP. […] This conclusion will be revisited when human pharmacokinetic (PK) data becomes available.

[3] = system: CYP3A4/5; test: CYP inhibition; assay type: in vitro ADME; details: human
Description: as §1

[4] = 150 mg NRL-1049, fed compared to fasting state
[5] = 25 to 250 mg NRL-1049, fasting conditions
[6] = plasma NRL-1049, mean, 25 mg NRL-1049 single oral, fasting, Cohort 1, N = 6
[7] = plasma NRL-1049, mean, 75 mg NRL-1049 single oral, fasting, Cohort 2, N = 6
[8] = plasma NRL-1049, mean, 150 mg NRL-1049 single oral, Fed, Cohort 3, N = 10
[9] = plasma NRL-1049, mean, 250 mg NRL-1049 single oral, fasting, Cohort 4, N = 6

Chain of CYP2D6 (P10635 whole entry): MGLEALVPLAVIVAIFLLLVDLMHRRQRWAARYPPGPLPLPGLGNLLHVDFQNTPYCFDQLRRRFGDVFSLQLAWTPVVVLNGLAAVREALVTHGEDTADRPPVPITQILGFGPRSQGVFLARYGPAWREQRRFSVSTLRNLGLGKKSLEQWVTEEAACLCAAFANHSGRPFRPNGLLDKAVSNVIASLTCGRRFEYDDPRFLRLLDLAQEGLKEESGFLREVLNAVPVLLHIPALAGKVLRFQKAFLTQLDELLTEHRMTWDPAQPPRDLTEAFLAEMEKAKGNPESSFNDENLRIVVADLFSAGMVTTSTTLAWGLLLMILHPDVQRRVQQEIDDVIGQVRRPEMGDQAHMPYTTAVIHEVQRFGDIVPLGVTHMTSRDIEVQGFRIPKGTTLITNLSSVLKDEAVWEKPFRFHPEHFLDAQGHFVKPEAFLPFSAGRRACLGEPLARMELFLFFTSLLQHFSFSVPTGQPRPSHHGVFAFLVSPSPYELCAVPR

C[C@@H](N)C1CCN(S(=O)(=O)c2cccc3cnccc23)CC1 [NRL-1049]
food effect on mean AUC0-T and AUCinf [1, 4]: greater in the fed state
food effect on mean Cmax [1, 4]: decreased
food effect on mean apparent clearance [1, 4]: greater in the fasting state
food effect on mean apparent volume of distribution [1, 4]: greater in the fed state
food effect on mean elimination half-life [1, 4]: slightly increased
time up to which mean concentrations were quantifiable ([1]; 25-mg dose, fasting state): up to 2 hours
manner of increase of AUC0-T with dose [1, 5]: greater than dose proportional
manner of increase of AUC0-Tmax with dose [1, 5]: dose proportional
manner of increase of AUCinf with dose [1, 5]: greater than dose proportional
manner of increase of Cmax with dose [1, 5]: dose proportional
time up to which mean concentrations were quantifiable ([1]; 75-mg dose, fasting state): ≤ 4 h
time up to which mean concentrations were quantifiable ([1]; 150- and 250-mg doses, fasting state): ≤ 8 h
time up to which mean concentrations were quantifiable ([1]; 150-mg dose, fed state): up to 12 hours
AUC(0-t) ([1]; both sexes, human, plasma, oral, range over dose range 25 to 250 mg NRL-1049, fasting state, read-out: mean AUC0-T): 3.03 to 76.5 ng·h/mL
AUC ([1]; both sexes, human, plasma, oral, range over dose range 25 to 250 mg NRL-1049, fasting state, read-out: mean AUC0-Tmax): 1.26 to 8.73 ng·h/mL
AUC(0-inf) ([1]; both sexes, human, plasma, oral, range over dose range 25 to 250 mg NRL-1049, fasting state, read-out: mean AUCinf): 3.81 to 78.2 ng·h/mL
Cmax ([1]; both sexes, human, plasma, oral, range over dose range 25 to 250 mg NRL-1049, fasting state, read-out: mean Cmax): 3.66 to 58 ng/mL
half-life ([1]; both sexes, human, plasma, oral, range over the dose groups 25 to 250 mg NRL-1049, fasting state, read-out: mean elimination half-life): 31.2 to 75.6 min
AUC(0-t) ([1]; both sexes, human, plasma, po, 25 mg, plasma NRL-1049, mean, 25 mg NRL-1049 single oral, fasting, Cohort 1, N = 6, read-out: AUC0-T): 3.03 ng·h/mL
AUC ([1]; both sexes, human, plasma, po, 25 mg, plasma NRL-1049, mean, 25 mg NRL-1049 single oral, fasting, Cohort 1, N = 6, read-out: AUC0-Tmax): 1.26 ng·h/mL
AUC(0-inf) ([1]; both sexes, human, plasma, po, 25 mg, plasma NRL-1049, mean, 25 mg NRL-1049 single oral, fasting, Cohort 1, N = 6, read-out: AUCinf): 3.81 ng·h/mL
Cmax ([1]; both sexes, human, plasma, po, 25 mg, plasma NRL-1049, mean, 25 mg NRL-1049 single oral, fasting, Cohort 1, N = 6, read-out: Cmax): 3.66 ng/mL
Vd/F ([1]; both sexes, human, plasma, po, 25 mg, plasma NRL-1049, mean, 25 mg NRL-1049 single oral, fasting, Cohort 1, N = 6): 5500 L
Tmax ([1]; both sexes, human, plasma, po, 25 mg, plasma NRL-1049, median, 25 mg NRL-1049 single oral, fasting, Cohort 1, N = 6, read-out: Tmax): 45 min
AUC(0-t) ([1]; both sexes, human, plasma, po, 75 mg, plasma NRL-1049, mean, 75 mg NRL-1049 single oral, fasting, Cohort 2, N = 6, read-out: AUC0-T): 13.8 ng·h/mL
AUC ([1]; both sexes, human, plasma, po, 75 mg, plasma NRL-1049, mean, 75 mg NRL-1049 single oral, fasting, Cohort 2, N = 6, read-out: AUC0-Tmax): 2.88 ng·h/mL
AUC(0-inf) ([1]; both sexes, human, plasma, po, 75 mg, plasma NRL-1049, mean, 75 mg NRL-1049 single oral, fasting, Cohort 2, N = 6, read-out: AUCinf): 15.2 ng·h/mL
Cmax ([1]; both sexes, human, plasma, po, 75 mg, plasma NRL-1049, mean, 75 mg NRL-1049 single oral, fasting, Cohort 2, N = 6, read-out: Cmax): 16.9 ng/mL
Vd/F ([1]; both sexes, human, plasma, po, 75 mg, plasma NRL-1049, mean, 75 mg NRL-1049 single oral, fasting, Cohort 2, N = 6): 6020 L
Tmax ([1]; both sexes, human, plasma, po, 75 mg, plasma NRL-1049, median, 75 mg NRL-1049 single oral, fasting, Cohort 2, N = 6, read-out: Tmax): 30 min
AUC(0-t) ([1]; both sexes, human, plasma, po, 150 mg, plasma NRL-1049, mean, 150 mg NRL-1049 single oral, Fasted, Cohort 3, N = 6, read-out: AUC0-T): 34.8 ng·h/mL
AUC ([1]; both sexes, human, plasma, po, 150 mg, plasma NRL-1049, mean, 150 mg NRL-1049 single oral, Fasted, Cohort 3, N = 6, read-out: AUC0-Tmax): 6.16 ng·h/mL
AUC(0-inf) ([1]; both sexes, human, plasma, po, 150 mg, plasma NRL-1049, mean, 150 mg NRL-1049 single oral, Fasted, Cohort 3, N = 6, read-out: AUCinf): 36.2 ng·h/mL
Cmax ([1]; both sexes, human, plasma, po, 150 mg, plasma NRL-1049, mean, 150 mg NRL-1049 single oral, Fasted, Cohort 3, N = 6, read-out: Cmax): 34.9 ng/mL
Vd/F ([1]; both sexes, human, plasma, po, 150 mg, plasma NRL-1049, mean, 150 mg NRL-1049 single oral, Fasted, Cohort 3, N = 6): 10800 L
AUC(0-t) ([1]; both sexes, human, plasma, po, 150 mg, plasma NRL-1049, mean, 150 mg NRL-1049 single oral, Fed, Cohort 3, N = 10, read-out: AUC0-T): 42 ng·h/mL
AUC ([1]; both sexes, human, plasma, po, 150 mg, plasma NRL-1049, mean, 150 mg NRL-1049 single oral, Fed, Cohort 3, N = 10, read-out: AUC0-Tmax): 6.14 ng·h/mL
AUC(0-inf) ([1]; both sexes, human, plasma, po, 150 mg, plasma NRL-1049, mean, 150 mg NRL-1049 single oral, Fed, Cohort 3, N = 10, read-out: AUCinf): 44.7 ng·h/mL
Cmax ([1]; both sexes, human, plasma, po, 150 mg, plasma NRL-1049, mean, 150 mg NRL-1049 single oral, Fed, Cohort 3, N = 10, read-out: Cmax): 18.5 ng/mL
Vd/F ([1]; both sexes, human, plasma, po, 150 mg, plasma NRL-1049, mean, 150 mg NRL-1049 single oral, Fed, Cohort 3, N = 10): 10800 L
Tmax ([1]; both sexes, human, plasma, po, 150 mg, plasma NRL-1049, median, 150 mg NRL-1049 single oral, Fasted, Cohort 3, N = 6, read-out: Tmax): 30 min
Tmax ([1]; both sexes, human, plasma, po, 150 mg, plasma NRL-1049, median, 150 mg NRL-1049 single oral, Fed, Cohort 3, N = 10, read-out: Tmax): 52.8 min
AUC(0-t) ([1]; both sexes, human, plasma, po, 250 mg, plasma NRL-1049, mean, 250 mg NRL-1049 single oral, fasting, Cohort 4, N = 6, read-out: AUC0-T): 76.5 ng·h/mL
AUC ([1]; both sexes, human, plasma, po, 250 mg, plasma NRL-1049, mean, 250 mg NRL-1049 single oral, fasting, Cohort 4, N = 6, read-out: AUC0-Tmax): 8.73 ng·h/mL
AUC(0-inf) ([1]; both sexes, human, plasma, po, 250 mg, plasma NRL-1049, mean, 250 mg NRL-1049 single oral, fasting, Cohort 4, N = 6, read-out: AUCinf): 78.2 ng·h/mL
Cmax ([1]; both sexes, human, plasma, po, 250 mg, plasma NRL-1049, mean, 250 mg NRL-1049 single oral, fasting, Cohort 4, N = 6, read-out: Cmax): 58 ng/mL
Vd/F ([1]; both sexes, human, plasma, po, 250 mg, plasma NRL-1049, mean, 250 mg NRL-1049 single oral, fasting, Cohort 4, N = 6): 4940 L
Tmax ([1]; both sexes, human, plasma, po, 250 mg, plasma NRL-1049, median, 250 mg NRL-1049 single oral, fasting, Cohort 4, N = 6, read-out: Tmax): 30 min
Tmax ([1]; both sexes, human, plasma, po, range over single oral doses of 25 to 250 mg NRL-1049, fasting state, read-out: median time to maximum observed plasma concentration (Tmax)): 30 to 45 min
CL/F [1, 6]: 7420 L/h
Thalf [1, 6]: 0.52 h
CL/F [1, 7]: 5350 L/h
Thalf [1, 7]: 0.81 h
CL/F ([1]; plasma NRL-1049, mean, 150 mg NRL-1049 single oral, Fasted, Cohort 3, N = 6): 4820 L/h
CL/F [1, 8]: 3700 L/h
Thalf [1, 8]: 2.05 h
CL/F [1, 9]: 3370 L/h
Thalf [1, 9]: 1.03 h
IC50 [2]: 0.18 µM
IC50 ([3]; first of the two values printed 23/110, read-out: half-maximal inhibitory concentration (IC50)): 23 µM
IC50 ([3]; second of the two values printed 23/110, read-out: half-maximal inhibitory concentration (IC50)): 110 µM
